Assay results reported in patent publication US20100261666A1, “COMPOSITIONS AND METHODS FOR THE TREATMENT OF MYOCARDIAL DYSFUNCTION ASSOCIATED WITH SIRS OR SEPSIS” (THE BOARD OF TRUSTEES OF THE UNIVERSITY OF ILLINOIS, priority 2009, published 2010).
Read-outs that look alike come from different tables or passages of the source.

What was measured:
rat isolated hearts = experiment: Langendorff rat isolated heart procedure: left ventricular function and coronary flow; format: in vivo; conditions: for Coronary flow Baseline / Coronary flow 30 min / Coronary flow 60 min / Coronary flow 90 min / Coronary flow 120 min / Coronary flow 150 min: mean ± SEM
Procedure: Male Sprague Dawley, virus-free rats (Harlan) were used in each of the examples presented herein. After arrival and a brief acclimation (72 hours minimum), animals were randomized into control or experimental groups. The control and experimental protocols (Table 1) and experimental group treatments (Table 2) are described below.
Rat isolated heart experiments were performed via Langendorff method. […] CON hearts received vehicle (IP sterile water). […] Heparin was allowed to circulate for 60 seconds at which time a thoracotomy was performed to expose the heart. The heart was quickly removed, placed in ice cold Krebs-Ringers bicarbonate buffer (KRB, described below) and weighed. The ascending aorta was rapidly cannulated and the heart was attached, via the cannula, to the perfusion apparatus. The hearts were perfused with a modified KRB containing (102 mM NaCl, 4.75 mM KCl, 1.20 mM KH2PO4, 1.18 mM MgSO4, 22.75 mM NaHCO3, 11.50 mM Glucose, 4.96 mM Na-Pyruvate, 5.40 mM Na-Fumarate and 1 mM CaCl2), at a temperature of 37.0° C., and pH 7.4 as maintained by vigorous bubbling with 95%/5% O2/CO2.
At all times, hearts were perfused with KRB at a pressure of 72-78 mmHg set by the height of the water-jacketed reservoir. The left atrium of the heart was then removed, just above the left atrio-ventricular valve. A latex balloon was used to measure left ventricular pressure as an index of cardiac performance. The balloon was constructed by filling the reservoir tip of a latex condom with degassed water. PE-50 tubing, pre-filled with degassed water and attached to a stopcock/Hamilton screw-top syringe assembly, was flanged and placed into the tip of the condom. Surgical silk (5-0) was used to gather the condom tip around the flanged end of the tubing and form a seal, at which time the excess latex was removed.
The balloon/stopcock assembly was attached to a pressure transducer (Spectramed-Statham) and inserted into the left ventricle to record cardiac performance data via Windaq (DATAQ, CA). Two platinum electrodes, connected to a electrical stimulator (Grass Model 92C), were placed at the lateral edges of the right atria in order to pace the heart at 300 BPM using a voltage 10% greater than that required to capture rhythm. The volume in the latex balloon was increased to produce a left ventricular diastolic pressure (LVdiaP) of 10.0 mmHg.
The heart was then perfused normally for 30 minutes, a period designated as the equilibration phase. During this phase of perfusion hearts had to maintain a LVdiaP of 10.0±2.0 mmHg to be included in the study. At the end of thirty minutes, baseline measurements of coronary flow and left ventricular pressure were made. This time point was designated as 0 minutes. At this time, hearts receiving LPS (10 μg/mL/min) were infused via injection port/stop cock assembly, into the KRB perfusion stream, just above the aortic cannula for a total infusion time of 60 minutes. Hearts not receiving LPS were infused with vehicle (sterile water, 1.25% coronary flow (mL)·min). At 60 minutes, infusion was halted and normal KRB perfusion continued for 90 minutes (total experimental time post-equilibration=150 minutes).
Measurements of coronary flow and left ventricular pressure were taken every 30 minutes starting at 0 minutes. At the termination of the experiment, the left ventricle was rapidly excised from the whole heart, flash frozen in liquid nitrogen and stored at −80.0° C. for further analysis.
Statistical analysis was performed on data generated from these experimental protocols using a one-way analysis of variance (one-way ANOVA) with pair wise comparisons (Fisher Least Significant Difference test (LSD)). Data is presented herein as mean±standard error of the mean (SEM).
The Fisher LSD was used to determine whether 30 and 150 min values differed from baseline values. In addition, changes from baseline values (e.g., 30 or 150 minute value−respective baseline value) were compared among groups.

adenosine deaminase = adenosine deaminase (Rattus norvegicus, UniProt Q920P6); conditions: LV tissue homogenates at 150 minute time point
Sequence of adenosine deaminase (Q920P6 whole entry): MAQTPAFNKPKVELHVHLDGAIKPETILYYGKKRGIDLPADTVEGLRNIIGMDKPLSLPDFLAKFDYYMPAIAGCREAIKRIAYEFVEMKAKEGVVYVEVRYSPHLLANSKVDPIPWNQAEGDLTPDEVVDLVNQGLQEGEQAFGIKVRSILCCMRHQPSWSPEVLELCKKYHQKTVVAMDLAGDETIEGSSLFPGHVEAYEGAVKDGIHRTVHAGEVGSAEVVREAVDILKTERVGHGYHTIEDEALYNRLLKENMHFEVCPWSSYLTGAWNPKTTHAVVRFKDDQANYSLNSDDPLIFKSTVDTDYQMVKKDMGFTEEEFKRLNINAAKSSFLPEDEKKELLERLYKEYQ
Procedure: Assays were performed according to the manufacturer's instructions.

TNF-α = experiment: Real time PCR, left ventricular TNF-α mRNA expression; format: in vivo, rat; conditions: LPS infusion
Procedure: Total RNA was isolated from left ventricular tissue using the SV Total Isolation System (Promega Corp., Madison, Wis.). Isolation was performed according to manufacturer instructions and followed by DNAse treatment to eliminate residual genomic DNA contamination. RNA integrity was determined by loading 1.0 μg of total RNA isolate from each sample onto a 1.0% agarose gel and staining with ethidium bromide to visualize the 18 and 28s RNA bands. The amount of RNA recovered was determined using the Ribogreen RNA Quantification Kit (Molecular Probes, Eugene, Oreg.). […]
Specific primer sequences, GenBank accession numbers, Sequence Identifiers, and product sizes are disclosed in Table 5. […] For real-time PCRs, SYBR PCR Master Mix (Bio-Rad Laboratories, Hercules, Calif.) was used, and thermocycling and fluorescence detection was performed using a Stratagene Mx3000p real-time PCR machine.
After confirmation of primer efficiency and specificity, the concentrations of purified products generated by standard PCR were determined using Molecular Probe's Picogreen DNA quantification kit, and PCR products were serially diluted to obtain standards containing 10^1, 10^2, 10^3, 10^4, 10^5, and 10^6 copies of synthetic template. […]

ADA1 = experiment: Real time PCR, left ventricular ADA1 mRNA expression; format: in vivo, rat
Procedure: Total RNA was isolated from left ventricular tissue using the SV Total Isolation System (Promega Corp., Madison, Wis.). Isolation was performed according to manufacturer instructions and followed by DNAse treatment to eliminate residual genomic DNA contamination. RNA integrity was determined by loading 1.0 μg of total RNA isolate from each sample onto a 1.0% agarose gel and staining with ethidium bromide to visualize the 18 and 28s RNA bands. The amount of RNA recovered was determined using the Ribogreen RNA Quantification Kit (Molecular Probes, Eugene, Oreg.). 1 μg of total RNA was reverse transcribed in a […] using random hexamer primers with enzyme and buffers supplied in the cDNA First Strand Synthesis kit (MRI Fermentas, Hanover, Md.). First strand cDNA was treated with ribonuclease H to remove residual RNA.
Real time PCR (qPCR) was performed to measure RNA transcripts for left ventricular TNF-α and ADA1. Three housekeeping genes were selected as follows to produce an intergroup correction factor for target transcripts: Cyclophilin A, hypoxanthine-guanine physphoribosyltransferase (HPRT), and β-actin. Primers were selected using Primer 3 software (Rosen and Skaletsky, Whitehead Institute for Biomedical Research) with the rat genomic sequences for TNF gene, ADA gene, HPRT gene, β-actin gene, and Cyclophilin gene as templates. BLAST (National Center for Biotechnology Information) searches were used to verify that the selected primers were specific for the designated target.
Specific primer sequences, GenBank accession numbers, Sequence Identifiers, and product sizes are disclosed in Table 5. Primers were used in a standard PCR with the 2× Master Mix PCR reagent (MRI Fermentas) and cDNA from the tissue of interest as a template. The thermocycling profile consisted of one cycle of 95° C. for 10 minutes, followed by 41 cycles of 95° C. for 1 minute, 61° C. for 1 minute, and 72° C. for 1 minute and a final cycle of 72° C. for 10 minutes. Products were run on a 1.0% agarose gel and stained with ethidium bromide to confirm that only one band was amplified and that no primer dimers were present. PCR products were then column-purified (QIAGEN, Valencia, Calif.) and sequenced to confirm target specificity. For real-time PCRs, SYBR PCR Master Mix (Bio-Rad Laboratories, Hercules, Calif.) was used, and thermocycling and fluorescence detection was performed using a Stratagene Mx3000p real-time PCR machine.
Standards were then amplified by real-time PCR, and standard curves were generated using Stratagene Mx3000P software. […]
A housekeeping gene was selected for normalization of the real-time PCR data for the TNF-α and ADA1 transcripts. Three potential gene (mRNA) products were analyzed for this purpose: CYC, β-actin and HPRT.

ADA = ADA (Homo sapiens, UniProt P00813); conditions: cited from earlier work
Sequence of ADA (P00813 whole entry, species assumed, the tested form may be a part): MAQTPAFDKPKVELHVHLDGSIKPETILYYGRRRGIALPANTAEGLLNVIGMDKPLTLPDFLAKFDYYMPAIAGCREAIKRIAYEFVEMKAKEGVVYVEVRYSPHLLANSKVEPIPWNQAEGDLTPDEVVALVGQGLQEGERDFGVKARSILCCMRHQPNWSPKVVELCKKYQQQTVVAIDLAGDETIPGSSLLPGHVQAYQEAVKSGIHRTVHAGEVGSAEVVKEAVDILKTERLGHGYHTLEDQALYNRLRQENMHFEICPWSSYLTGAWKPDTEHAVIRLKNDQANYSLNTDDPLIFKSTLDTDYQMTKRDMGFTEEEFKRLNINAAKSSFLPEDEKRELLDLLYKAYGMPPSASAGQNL

[1] = LPS infusion, 30 minutes, change from baseline, mean±SEM

LV ADA activity compared to CON and LPS hearts (adenosine deaminase; LPS infusion): significant decrease | LV ADA activity compared to CON and LPS hearts (adenosine deaminase; vehicle infusion): significant decrease
SMILES: OC[C@H]1O[C@@H](n2cnc3c2N=CNCC3O)CC1O (stereo in doubt) [dCF, 2′-deoxycoformycin]
Coronary flow Baseline (rat isolated hearts; LPS infusion 10 μg/mL/min (-LPS group)): 27.4 ± 1.7 mL/min | Coronary flow 30 min (rat isolated hearts; LPS infusion (-LPS group)): 28.7 ± 1.2 mL/min | Coronary flow 60 min (rat isolated hearts; LPS infusion (-LPS group)): 27.8 ± 1.2 mL/min | Coronary flow 90 min (rat isolated hearts; LPS infusion (-LPS group)): 25.7 ± 1.0 mL/min | Coronary flow 120 min (rat isolated hearts; LPS infusion (-LPS group)): 22.4 ± 1.1 mL/min | Coronary flow 150 min (rat isolated hearts; LPS infusion (-LPS group)): 19.6 ± 0.8 mL/min | +dP/dt compared to respective baseline (rat isolated hearts; LPS infusion, 30 minutes): significantly greater | LV developed pressure compared to respective baseline (rat isolated hearts; LPS infusion, 30 minutes): significantly increased | LV diastolic pressure compared to respective baseline (rat isolated hearts; LPS infusion, 30 minutes): significantly lower | LV systolic pressure compared to respective baseline (rat isolated hearts; LPS infusion, 30 minutes): significantly greater | increase in LV developed pressure compared to LPS group (rat isolated hearts; LPS infusion, 30 minutes): similar | increase in LV systolic pressure compared to LPS group (rat isolated hearts; LPS infusion, 30 minutes): similar | increase in −dP/dt compared to LPS group (rat isolated hearts; LPS infusion, 30 minutes): similar | −dP/dt compared to respective baseline (rat isolated hearts; LPS infusion, 30 minutes): significantly greater | increase in LV developed pressure (rat isolated hearts; [1]): 20.1±3.2 mmHg | increase in LV systolic pressure (rat isolated hearts; [1]): 17.1±3.0 mmHg | +dP/dt compared to CON (rat isolated hearts; LPS infusion, 150 minutes): No differences | +dP/dt compared to LPS hearts (rat isolated hearts; LPS infusion, 150 minutes): improved | LV developed pressure compared to CON (rat isolated hearts; LPS infusion, 150 minutes): No differences | LV developed pressure compared to LPS hearts (rat isolated hearts; LPS infusion, 150 minutes): improved | LV developed pressure compared to respective baseline (rat isolated hearts; LPS infusion, 150 minutes): not significantly different | LV diastolic pressure (LPS-induced increase) compared to LPS hearts (rat isolated hearts; LPS infusion, 150 minutes): improved | LV systolic pressure compared to LPS group / among groups (rat isolated hearts; LPS infusion, 150 minutes): no significant differences | −dP/dt compared to LPS alone / among groups (rat isolated hearts; LPS infusion, 150 minutes): No significant differences | −dP/dt compared to respective baseline (rat isolated hearts; LPS infusion, 150 minutes): significantly lower | Coronary flow 30 min (rat isolated hearts; vehicle infusion (-CON group)): 27.7 ± 1.9 mL/min | Coronary flow 60 min (rat isolated hearts; vehicle infusion (-CON group)): 26.3 ± 2.1 mL/min | Coronary flow 90 min (rat isolated hearts; vehicle infusion (-CON group)): 24.5 ± 1.8 mL/min | Coronary flow 120 min (rat isolated hearts; vehicle infusion (-CON group)): 21.5 ± 1.9 mL/min | Coronary flow 150 min (rat isolated hearts; vehicle infusion (-CON group)): 19.8 ± 2.0 mL/min | Coronary flow Baseline (rat isolated hearts; vehicle infusion (-CON group)): 28.1 ± 1.9 mL/min | +dP/dt compared to respective baseline (rat isolated hearts; vehicle infusion, 30 minutes): no differences | LV diastolic pressure compared to respective baseline (rat isolated hearts; vehicle infusion, 30 minutes): significantly lower | −dP/dt compared to respective baseline (rat isolated hearts; vehicle infusion, 30 minutes): no differences | LV developed pressure compared to respective baseline (rat isolated hearts; vehicle infusion, 150 minutes): not significantly different | −dP/dt compared to respective baseline (rat isolated hearts; vehicle infusion, 150 minutes): significantly lower | left ventricular TNF-α mRNA expression compared to LPS hearts (TNF-α): did not significantly alter | left ventricular ADA1 mRNA expression (copy numbers) compared to CON and LPS hearts (ADA1; LPS infusion): significantly lower | left ventricular ADA1 mRNA expression (copy numbers) compared to CON and LPS hearts (ADA1; vehicle infusion): significantly lower | binding between dCF and ADA (ADA): effectively irreversible
